Assay [1] addresses Kappa-type opioid receptor (Rattus norvegicus, UniProt P34975).
Assay [2] concerns the target Delta-type opioid receptor (Rattus norvegicus, UniProt P33533).
The target of assay [3] is Mu-type opioid receptor (Rattus norvegicus, UniProt P33535).

This note sets out measurements from BindingDB's records for doi:10.1016/j.ejphar.2003.10.049 (University of Innsbruck, 2004).

The term Ki denotes the dissociation constant of the complex between target and ligand, obtained from inhibition or displacement. A lower Ki goes with tighter binding.

Sequence of Delta-type opioid receptor (P33533 whole entry): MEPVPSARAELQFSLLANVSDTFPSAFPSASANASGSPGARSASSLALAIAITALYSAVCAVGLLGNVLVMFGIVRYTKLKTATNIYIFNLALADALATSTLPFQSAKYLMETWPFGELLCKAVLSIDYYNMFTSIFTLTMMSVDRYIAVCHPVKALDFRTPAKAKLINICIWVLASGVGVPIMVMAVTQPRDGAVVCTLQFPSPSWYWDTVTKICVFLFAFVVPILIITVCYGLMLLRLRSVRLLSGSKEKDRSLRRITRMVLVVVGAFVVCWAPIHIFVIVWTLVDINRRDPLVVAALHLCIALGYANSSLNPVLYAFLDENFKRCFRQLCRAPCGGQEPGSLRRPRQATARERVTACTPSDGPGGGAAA
Sequence of Mu-type opioid receptor (P33535 whole entry): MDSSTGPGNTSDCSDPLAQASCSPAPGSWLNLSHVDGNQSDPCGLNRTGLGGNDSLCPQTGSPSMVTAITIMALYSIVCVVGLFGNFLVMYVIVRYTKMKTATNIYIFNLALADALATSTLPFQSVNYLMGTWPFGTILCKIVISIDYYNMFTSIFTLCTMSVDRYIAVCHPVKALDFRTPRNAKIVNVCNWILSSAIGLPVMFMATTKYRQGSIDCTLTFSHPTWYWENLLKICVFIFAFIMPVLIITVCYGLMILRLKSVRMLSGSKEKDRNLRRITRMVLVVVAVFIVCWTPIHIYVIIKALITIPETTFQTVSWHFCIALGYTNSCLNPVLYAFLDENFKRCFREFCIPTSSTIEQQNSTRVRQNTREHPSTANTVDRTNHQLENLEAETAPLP
Sequence of Kappa-type opioid receptor (P34975 whole entry): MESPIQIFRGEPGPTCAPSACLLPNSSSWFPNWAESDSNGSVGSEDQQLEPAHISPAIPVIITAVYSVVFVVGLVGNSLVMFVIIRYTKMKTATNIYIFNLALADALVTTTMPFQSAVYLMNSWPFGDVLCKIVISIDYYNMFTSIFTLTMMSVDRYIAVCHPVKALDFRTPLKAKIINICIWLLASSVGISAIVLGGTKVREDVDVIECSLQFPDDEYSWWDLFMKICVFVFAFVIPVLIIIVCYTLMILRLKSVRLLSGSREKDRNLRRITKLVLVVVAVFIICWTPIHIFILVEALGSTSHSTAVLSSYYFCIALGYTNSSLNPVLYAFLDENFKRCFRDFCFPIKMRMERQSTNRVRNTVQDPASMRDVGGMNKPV

For `COC12CC[C@H](N[C@H](C)C(=O)O)[C@@H]3Oc4c(O)ccc5c4[C@@]31CCN(C)C2C5` (stereo partly drawn) [(2S)-2-[4,5alpha-epoxy-3-hydroxy-14beta-methoxy-17-methylmorphinan-6alpha-yl)amino]propanoic acid bis(tetrafluoroborate)], the Ki in assay [1] is 142 nM; in assay [2], 26.9 nM.

`COC12CC[C@@H](N[C@H](C)C(=O)O)[C@@H]3Oc4c(O)ccc5c4[C@@]31CCN(C)C2C5` (stereo partly drawn) [(2S)-2-[4,5alpha-epoxy-3-hydroxy-14beta-methoxy-17-methylmorphinan-6beta-yl)amino]propanoic acid bis(tetrafluoroborate)]: the values for the inhibition constant Ki in assay [1] and in assay [2] were 63.7 nM and 7.71 nM, respectively.

As to `COC12CC[C@H](N[C@H](Cc3ccccc3)C(=O)O)[C@@H]3Oc4c(O)ccc5c4[C@@]31CCN(C)C2C5` (stereo partly drawn) [(2S)-2-[(4,5alpha-epoxy-3-hydroxy-14beta-methoxy-17-methylmorphinan-6alpha-yl)amino]-3-phenylpropanoic acid bis(tetrafluroborate)], the values for the inhibitory constant (Ki) in assay [1] and in assay [3] were 28.5 nM and 0.95 nM, respectively.

As to `COC12CC[C@@H](N[C@H](Cc3ccccc3)C(=O)O)[C@@H]3Oc4c(O)ccc5c4[C@@]31CCN(C)C2C5` (stereo partly drawn) [(2S)-2-[(4,5alpha-epoxy-3-hydroxy-14beta-methoxy-17-methylmorphinan-6beta-yl)amino]-3-phenylpropanoic acid bis(tetrafluoroborate)], the figures for the inhibition constant Ki in assay [1], in assay [3] and in assay [2] were 151 nM, 2.58 nM and 1.03 nM, respectively.

With `CCO[C@@]12Cc3c([nH]c4ccccc34)[C@]3(C)Oc4c(O)ccc5c4[C@@]31CCN(CC1CC1)C2C5` [HS-378], the Ki in assay [1] was determined as 134 nM; in assay [3], 340 nM.
